For the assay, the system named is CSM14.1 thapsigargin-induced death rescue, ATP luminescence. The assay is described as follows: protection against thapsigargin-triggered cell killing – 384-well, CSM14.1, ATP luminescence, primary screen (AID 1222).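 Note: death triggered by thapsigargin at about 15 µM added after 2 h compound pretreatment; cell ATP read after overnight thapsigargin exposure of roughly 18 to 22 hours.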

The structures appear in SMILES notation. Activity calls are given as the source filed them.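 Rule for the calls: active = EC50 below 50 µM in the dose-response confirmation; inactive = the rest.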 Bounds are passed on as bounds.

The record followed here is PubChem BioAssay AID1222 (Sanford-Burnham Center for Chemical Genomics, 2008).

In the case of `CC[C@@H](C)[C@@H](C(=O)N1CCN(C(=O)OC(C)(C)C)CC1)n1cc(CCCN=C(NC(=O)OC(C)(C)C)NC(=O)OC(C)(C)C)nn1`, the EC50 is 58.5 µM (inactive).

`CCN(CC)c1ccc(/C=C(/C#N)c2nc3ccc(C)cc3[nH]2)c(OC(C)C)c1`: the EC50 was > 100 µM (inactive).

Consider `COc1ccc(/C=C/C(=O)N2CCCc3ccccc32)cc1`, for which the EC50 was > 100 µM (inactive).

As to `O=c1c2c(-c3ccccc3)csc2ncn1/N=C/c1cccc([N+](=O)[O-])c1O`, the EC50 is > 100 µM (inactive).

Consider `CCOc1ccccc1NC(=O)C(OC(=O)c1ccccc1NS(=O)(=O)c1cccs1)c1ccccc1` (stereo not given), for which the EC50 is > 100 µM (inactive).

On to `Cc1ccc2c(C(=O)N3CCN(c4ccccc4)CC3)cc(-c3cccnc3)nc2c1C`, for which the EC50 was 81.3 µM (inactive).

Regarding `CC1=NN(/C(=N\c2nnc(C)s2)Nc2ccccc2)[C@H](c2ccc(C)cc2)S1`, the EC50 is > 100 µM (inactive).

Turning to `COc1ccc(C(=O)NNC(=S)NC(=O)C(C)(C)C)cc1`, the EC50 was > 100 µM (inactive).

`C#CCOCCOCCOCCNc1nc(N2CCN(C(=O)[C@H](CCCCN)n3cc(CCCC)nn3)CC2)nc(N2CCN(C(=O)[C@H](CCCCN)n3cc(CCCC)nn3)CC2)n1`: the EC50 was > 100 µM (inactive).

As for `CC(C)CC(NC(=O)OC(C)(C)C)c1cn([C@@H](Cc2cc3ccccc3[nH]2)C(=O)N2CCN(C(=O)OC(C)(C)C)CC2)nn1` (stereo not given in full), the EC50 was 62.2 µM (inactive).

Regarding `COc1ccc(NC2=Nc3ccccc3N3C2=Nc2c(c(C)nn2-c2ccc(C)cc2)C3c2cccnc2)cc1` (stereo not given), the EC50 was 92.6 µM (inactive).

On to `Cc1nc(N2CCN(C(=O)c3ccco3)CC2)c2c3c(sc2n1)CC(C)CC3` (stereo not given), for which the EC50 was 58.7 µM (inactive).

On to `Clc1ccc(OCCCN2CCCCC2)c(Br)c1`, for which the EC50 is > 100 µM (inactive).

Take `O=C(NC1CCCCC1)C(c1ccncc1)N(Cc1ccccc1)C(=O)c1ccc(-c2ccccc2)[nH]1` (stereo not given): the EC50 was 52.5 µM (inactive).

On to `CCN1C(=O)/C(=C/c2ccc3c(c2)CCN3CCCCl)C(=O)NC1=S`, for which the EC50 is 44.7 µM.

`O=C(CSc1nnnn1-c1ccccc1)c1cc2ccccc2oc1=O`: the EC50 is > 100 µM (inactive).

As for `COCCn1c(C)cc(C(=O)COC(=O)CCN2C(=O)c3ccccc3C2=O)c1C`, the EC50 is > 100 µM (inactive).

As to `O=C(NC1CCCCC1)C(c1ccc2ncccc2c1)N(Cc1ccccc1)C(=O)c1ccc2c(c1)OCCO2` (stereo not given), the EC50 is 32.3 µM.

For the compound `CCCC1=[N+](CC(C)=O)CCn2c(C)ccc21`, the EC50 is > 100 µM (inactive).

On to `Cc1ccc(OCC(=O)NCCC2=CCCCC2)cc1`, for which the EC50 was > 100 µM (inactive).

Consider `O=C(c1ccc(N2CCCC2=O)cc1)N1CCCCCC1`, for which the EC50 is > 100 µM (inactive).

On to `Cc1ccc(-c2nnn(CC(=O)N(Cc3cccs3)C(C(=O)NC3CCCC3)c3ccncc3)n2)cc1` (stereo not given), for which the EC50 was > 100 µM (inactive).

For the compound `Cc1cc(CNC(=O)Cc2ccccc2)c2ccccc2n1`, the EC50 is > 100 µM (inactive).

With `C#CCOCCOCCOCCNc1nc(N2CCN(C(=O)[C@H]([C@@H](C)CC)n3cc(CCCN=C(N)N)nn3)CC2)nc(N2CCN(C(=O)[C@H](CCCCN)n3cc(CCCC)nn3)CC2)n1`, the EC50 was > 100 µM (inactive).

As for `COc1ccc(CNC(=O)CCCn2nc(C)c([N+](=O)[O-])c2C)cc1OC`, the EC50 was > 100 µM (inactive).

Take `C/C(=N\NC(=S)Nc1cccc(C)c1)c1ccco1`: the EC50 is > 100 µM (inactive).

For the compound `CCOc1cc(/C=N/NC(=O)COc2cccc(C)c2)ccc1OC(=O)c1cccs1`, the EC50 is > 100 µM (inactive).

Regarding `CN1CCC(O)(c2ccccc2)C(C(=O)c2ccccc2)C1` (stereo not given), the EC50 is > 100 µM (inactive).

For `O=C(Nc1nonc1-c1ccc(Cl)cc1)c1ccccc1`, the EC50 was > 100 µM (inactive).

In the case of `COc1ccc(C2=C/C(=C\c3cccc(OC(C)=O)c3)C(=O)O2)cc1`, the EC50 is > 100 µM (inactive).

On to `CCCCC(=O)NNC(=S)NC(=O)c1ccc(C)cc1`, for which the EC50 was > 100 µM (inactive).

In the case of `O=c1[nH]c(-c2ccccn2)nc2sc(-c3ccccc3)cc12`, the EC50 is > 100 µM (inactive).

As to `CCC(=O)NC(=S)NNC(=O)c1ccc(OC)cc1`, the EC50 was > 100 µM (inactive).

For the compound `C=C(C)CNC(=S)N/N=C/c1ccc([N+](=O)[O-])cc1`, the EC50 is > 100 µM (inactive).

Take `Cc1ccc2cccc(N=Cc3c(C)[nH]n(-c4ccccc4)c3=O)c2n1`: the EC50 was > 100 µM (inactive).

As for `C#CCOCCOCCOCCNc1nc(N2CCN(C(=O)[C@H](C)n3cc(CCCN=C(N)N)nn3)CC2)nc(N2CCN(C(=O)[C@H](C)n3cc(CCCN=C(N)N)nn3)CC2)n1`, the EC50 is > 100 µM (inactive).

For `CCCCC(=O)NC(=S)NNC(=O)c1ccc(Cl)cc1Cl`, the EC50 was > 100 µM (inactive).

Regarding `COC(=O)[C@@]1(Cc2ccc(F)cc2)[C@H]2c3cc(C(=O)N4CCCC4)n(CCc4c[nH]c5ccc(OC)cc45)c3C[C@H]2CN1C(=O)c1ccccc1`, the EC50 is 66.2 µM (inactive).

`CC(C)C(=O)N1CCC(CN=Cc2c(O)n(C3CCCCC3)c(=O)n(C3CCCCC3)c2=O)CC1`: the EC50 was 70.3 µM (inactive).

With `O=C(Nc1nc(-c2cc(F)ccc2F)cs1)c1ccccn1`, the EC50 was > 100 µM (inactive).

With `COc1ccccc1Cn1c(=S)[nH]c2cc(C(=O)NCC3CCCO3)ccc2c1=O` (stereo not given), the EC50 is > 100 µM (inactive).

As to `COc1ccc(-c2oc3ccccc3c(=O)c2OC(C)=O)cc1`, the EC50 is > 100 µM (inactive).

Regarding `Cc1cccc(C(=O)O/N=C(/c2ccccc2)c2ccncc2)c1`, the EC50 was > 100 µM (inactive).

Consider `O=C(NC1CCCCC1)C(c1ccc2ncccc2c1)N(Cc1ccc(F)cc1)C(=O)c1ccc2c(c1)OCCO2` (stereo not given), for which the EC50 was 28.8 µM.

As to `CC12COC3(P(=O)(c4ccccc4)c4ccccc4)CC1CCC23CP(=O)(c1ccccc1)c1ccccc1` (stereo not given), the EC50 is 40.2 µM.

As to `O=S(=O)(c1ccc2c(c1)OCCO2)N1CCN(c2nc(-c3cccnc3)nc3ccccc23)CC1`, the EC50 was 76.4 µM (inactive).

Take `CC12C(=O)N(c3ccc(C(=O)N4CCOCC4)cc3)C(=O)C1C1c3ccccc3C2c2ccccc21` (stereo not given): the EC50 is > 100 µM (inactive).

On to `COC(=O)c1ccc(NC(=O)C2CC(=O)N(c3ccc(C)cc3)C2)cc1` (stereo not given), for which the EC50 is > 100 µM (inactive).

Turning to `O=C(NC1CCCCC1)C(c1ccc2ncccc2c1)N(Cc1ccc2c(c1)OCO2)C(=O)c1ccc2c(c1)OCCO2` (stereo not given), the concentration for a half-maximal effect (EC50) is 21.3 µM.

As to `COc1ccc(C(=O)C(OC(=O)c2ccccc2)c2ccccc2)cc1` (stereo not given), the EC50 is 66.5 µM (inactive).

As to `COc1ccc(CN(C(=O)c2ccc3c(c2)OCCO3)C(C(=O)NC2CCCCC2)c2ccc3ncccc3c2)cc1` (stereo not given), the EC50 is 31.4 µM.

For the compound `CCC(=O)Nc1nc2ccccc2n1Cc1ccc(Cl)cc1`, the EC50 is > 100 µM (inactive).

`CCCCCCn1c(O)c(/C=C2\C=NN=C2c2ccccc2)sc1=S`: the EC50 was > 100 µM (inactive).

In the case of `CCc1ccc(CC2S/C(=C(\C#N)C(C)=O)NC2=O)cc1` (stereo not given), the EC50 was > 100 µM (inactive).

As to `CNC(=O)c1c(NC(=O)c2nc3ccccc3s2)sc2c1CCC2`, the EC50 was > 100 µM (inactive).

For `Cc1c(Cl)c(C(F)F)nn1CC(=O)NC1C(=O)N2C(C(=O)O)=C(CSc3nnnn3C)CSC12` (stereo not given), the EC50 was > 100 µM (inactive).

Regarding `CCOC(=O)C1=C(NC(=S)NC(=O)c2ccccc2)c2ccccc2CC1(C)C`, the EC50 was > 100 µM (inactive).

As to `COc1ccc(CN(C(=O)c2cccs2)C(C(=O)NC2CCCCC2)c2ccc3ncccc3c2)cc1` (stereo not given), the EC50 is 68.5 µM (inactive).

Regarding `CCN1CCc2c(OCC(=O)N3N=C(c4cccs4)CC3c3ccc(F)cc3)cccc2C1=O` (stereo not given), the EC50 was 42 µM.

In the case of `CCO[C@@H]1OC(C(=O)N2CCN(Cc3ccc4c(c3)OCO4)CC2)=C[C@H](c2csc3ccccc23)[C@H]1CCCO`, the EC50 is 86.1 µM (inactive).

The term EC50 denotes the midpoint of the concentration-response curve.
